{"source": "patent US8252814B2", "about": "“Agents and crystals for improving excretory potency of urinary bladder” (priority 1998, dated 2012)", "key": {"[1]": {"target": "T1, acetylcholinesterase of human erythrocyte origin (Homo sapiens, UniProt P22303)", "T1 construct": "Acetylcholinesterase of human erythrocyte origin (Sigma Chemical Co.); purchased Sigma Chemical Co; host or cells: human erythrocytes (natural source)", "T1 sequence (P22303 32-617 isoform P22303-2 limits assumed)": "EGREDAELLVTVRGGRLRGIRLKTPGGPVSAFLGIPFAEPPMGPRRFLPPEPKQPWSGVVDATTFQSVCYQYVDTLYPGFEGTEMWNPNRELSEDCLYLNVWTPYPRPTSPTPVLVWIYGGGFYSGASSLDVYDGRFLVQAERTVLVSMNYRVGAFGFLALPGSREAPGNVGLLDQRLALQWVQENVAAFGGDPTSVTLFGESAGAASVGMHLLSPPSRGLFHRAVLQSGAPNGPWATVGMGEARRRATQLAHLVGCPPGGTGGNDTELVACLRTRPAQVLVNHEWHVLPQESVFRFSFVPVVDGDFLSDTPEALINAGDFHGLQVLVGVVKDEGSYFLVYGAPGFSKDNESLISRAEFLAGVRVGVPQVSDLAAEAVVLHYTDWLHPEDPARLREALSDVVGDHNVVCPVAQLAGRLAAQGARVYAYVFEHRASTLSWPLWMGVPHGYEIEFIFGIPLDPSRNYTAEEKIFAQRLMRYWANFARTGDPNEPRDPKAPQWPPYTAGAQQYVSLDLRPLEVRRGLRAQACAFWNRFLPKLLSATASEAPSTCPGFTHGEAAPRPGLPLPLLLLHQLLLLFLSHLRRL", "assay": "Measurement of acetylcholinesterase-inhibiting action (acetylthiocholine / Ellman method), Experimental Example 1", "format": "biochemical", "settings": "at least 3 experiments", "protocol": "Acetylcholinesterase-inhibiting action of the compounds disclosed in Reference Examples was measured using acetylcholinesterase of human erythrocyte origin according to the acetylthiocholine method (Ellman method).\nAcetylcholinesterase of human erythrocyte origin (Sigma Chemical Co.) was dissolved in distilled water at a concentration of 0.2 IU/mL to give an enzyme authentic sample. To a 96-well microplate was dispensed 20 μL of drug solution, 30 μL of 80 mM Tris-HCl (pH 7.4), 50 μL of enzyme authentic sample and 50 μL of 5 mM 5,5-dithio-bis(2-nitrobenzoic acid) (Sigma Chemical Co.), and the plate was shaken for 10 seconds. Then, 50 μL of acetylthiocholine iodide (Sigma Chemical Co.) was added, and the plate was again shaken. Immediately after shaking, increase of extinction at […] was measured at intervals of 30 seconds for 10 minutes. The enzyme activity was determined according to the following equation.\nThe experiment was repeated at least 3 times for each compound to obtain 50% inhibitory concentration (IC50). Moreover, in the same manner as mentioned above, acetylcholinesterase-inhibiting activity of distigmine was measured."}, "[2]": {"test_system": "urinary bladder", "assay": "Potentiation effect for rhythmic contraction of urinary bladder in guinea pig, Experimental Example 2", "format": "in vivo, Hartley male guinea pigs", "settings": "Cavia porcellus, iv, read-out: AUC200 (mg/kg, i.v.)", "protocol": "Potentiation effect of the compounds disclosed in Reference Examples for rhythmic contraction of urinary bladder was examined using Hartley male guinea pigs. Hartley male guinea pigs (SLC) weighing about 300 g were anesthetized with urethane (1.2 g/kg, i.p.), held, and incised at the midline of abdomen to expose the bladder. The urethra was ligated, and a polyethylene tube (PE-50) was inserted into the bladder. The internal pressure of the bladder was measured with a blood pressure amplifier (Nippon Koden), and the data was collected on a personal computer through an A/D converter (MP-30, Biopac Systems). A proper amount of physiological saline was injected into the bladder through a cannula to induce rhythmic contraction of the to bladder.\nThe area (AUC) that is formed by a curve of the internal pressure of the bladder and a base line was calculated through analytical software (Studentlab pro 2.1.5, Biopac Systems) to evaluate the effect of the test compounds. The curve of the internal pressure is made based on the bladder contraction immediately before administration of the test compound and the first contraction 5 minutes after the administration. From the dose-dependent curve of AUC, the dose at which AUC before drug administration was increased 2 times (AUC200) was calculated to determine potency of contraction-enhancing effect of the test compounds for the muscle of urinary bladder. In addition, the potency of contraction-enhancing effect of […] for the muscle of bladder was determined in the same manner as mentioned above."}, "[3]": {"test_system": "guinea pigs", "assay": "Effect on urination efficiency in guinea pigs, Experimental Example 3", "format": "in vivo, Hartley male guinea pigs", "settings": "for Efficiency of Urination (%) Before adm. / Efficiency of Urination (%) After adm. / Improvement of Efficiency (%): guinea pig; for Efficiency of Urination (%) Before adm.: before administration; for Efficiency of Urination (%) After adm. / Improvement of Efficiency (%): 30 minutes after administration", "from_the_text": "Effect of the compounds of Reference Examples on urination efficiency was examined using Hartley male guinea pigs. Six to ten Hartley male guinea pigs weighing 346.5±3.5 g (SLC) were employed in each treated group. Guinea pigs were anesthetized with urethane, and held, and the bladder was exposed. Two polyethylene tubes (PE-50 and PE-100) were inserted into the bladder. One (PE-50) of the tubes was used in infusion of physiological saline, and the other (PE-100) was used for measurement of the internal pressure of the bladder. Saline was infused continuously at a flow rate of 0.3 mL/min. The infusion was stopped at the time when intermittent urination was confirmed at least 3 times, and the whole saline in bladder was removed. Again, infusion was started, and stopped at the time when a rise of the pressure in bladder was confirmed immediately before urination, and the time required for infusion and the weight of excreted urine were measured. Efficiency of urination was calculated from the following equation. Efficiency of urination (%)=100×Excreted volume (mL)/Infusion time (min)×0.3 (mL/min)\nMeasurement was made at least 2 times before administration of the test compound, and then the test compound was dissolved in distilled water and administered intravenously. […] Effect by administration of solvents was also confirmed.\nThe average measured value before administration of the test compounds was regarded as the value before administration, and applied to the paired-t test for a significant difference test with the value after the administration. (** p<0.01, * p<0.05)"}, "[4]": {"target": "T2, human erythrocyte-derived acetylcholine esterase (Homo sapiens, UniProt P22303)", "T2 construct": "Acetylcholinesterase of human erythrocyte origin (Sigma Chemical Co.); purchased Sigma Chemical Co; host or cells: human erythrocytes (natural source)", "T2 sequence (P22303 32-617 isoform P22303-2 limits assumed)": "as above", "assay": "Determination of the activity to inhibit the acetylcholine esterase of the crystals (Ellman method), Experimental Example 5", "format": "biochemical", "settings": "at least three experiments", "protocol": "The activity to inhibit the acetylcholine esterase of the crystals obtained in Example 1 was determined according to the acetylthiocholine method (the Ellman method) by the use of a human erythrocyte-derived acetylcholine esterase.\nA human erythrocyte-derived acetylcholine esterase (Sigma Chemical Company) was dissolved into distilled water to obtain a standard enzyme preparation with an enzyme concentration of 0.2 IU/mL. […]\nThe activity to inhibit the acetylcholine esterase of the crystals obtained in Example 1 was determined according to the acetylthiocholine method (the ElIman method) by the use of a human erythrocyte-derived acetylcholine esterase.\nA human erythrocyte-derived acetylcholine esterase (Sigma Chemical Company) was dissolved into distilled water to obtain a standard enzyme preparation with an enzyme concentration of 0.2 IU/mL. […] As soon as 50 μl of a 4-mM solution of acetylthiocholine iodide (Sigma Chemical Company) was added and shaking was started again, every increment in absorbance at the wavelength of 414 nm at an interval of 30 seconds was determined for 10 minutes. R=5.74×10^−7×ΔA (wherein R indicates an enzyme activity (mol) and ΔA indicates an increment in absorbance at the wavelength of 414 nm). […] Furthermore, the activity to inhibit the acetylcholine esterase of distigmine was determined in a manner similar to that described in the above method."}}, "note": "Marks after values point to notes of the source that are not given here."}
{"smiles": "CN(CCCCCCN(C)C(=O)Oc1ccc[n+](C)c1)C(=O)Oc1ccc[n+](C)c1", "note": "[Distigmine, reference compound]", "values": [{"measurement": "IC50", "setting": "[1]", "result": 723, "unit": "nM"}, {"measurement": "ED (2-fold bladder contraction AUC)", "setting": "[2]", "result": 0.1, "unit": "mg/kg"}, {"measurement": "improvement of urination efficiency (in words)", "setting": "[3]; conclusion from Table 7", "result": "poor and it makes the efficiency worse at a high dose"}, {"measurement": "Efficiency of Urination (%) Before adm.", "setting": "[3]; 0.1 mg/kg i.v. group", "result": "79.1 ± 5.7", "unit": "%"}, {"measurement": "Efficiency of Urination (%) After adm.", "setting": "[3]; 0.1 mg/kg i.v.", "result": "90.9 ± 2.7", "unit": "%"}, {"measurement": "Improvement of Efficiency (%)", "setting": "[3]; 0.1 mg/kg i.v.", "result": 20.4, "unit": "%"}, {"measurement": "Efficiency of Urination (%) Before adm.", "setting": "[3]; 0.3 mg/kg i.v. group (distigmine)", "result": "67.4 ± 4.3", "unit": "%"}, {"measurement": "Efficiency of Urination (%) After adm.", "setting": "[3]; 0.3 mg/kg i.v.", "result": "75.3 ± 3.7", "unit": "%"}, {"measurement": "Improvement of Efficiency (%)", "setting": "[3]; 0.3 mg/kg i.v.", "result": 14.7, "unit": "%"}, {"measurement": "Efficiency of Urination (%) Before adm.", "setting": "[3]; 1 mg/kg i.v. group (distigmine)", "result": "78.6 ± 6.7", "unit": "%"}, {"measurement": "Efficiency of Urination (%) After adm.", "setting": "[3]; 1 mg/kg i.v.", "result": "67.8 ± 4.6", "unit": "%"}, {"measurement": "Improvement of Efficiency (%)", "setting": "[3]; 1 mg/kg i.v.", "result": "−11.6", "unit": "%"}, {"measurement": "Efficiency of Urination (%) Before adm.", "setting": "[3]; 3 mg/kg i.v. group (distigmine)", "result": "68.6 ± 7.0", "unit": "%"}, {"measurement": "Efficiency of Urination (%) After adm.", "setting": "[3]; 3 mg/kg i.v.", "result": "48.1 ± 8.5", "unit": "%"}, {"measurement": "Improvement of Efficiency (%)", "setting": "[3]; 3 mg/kg i.v.", "result": "−30.9** %"}, {"measurement": "IC50", "setting": "[4]", "result": 652, "unit": "nM"}]}
